Test results taken from publication PMC12677653, “Inhibition of Tumor Lipogenesis and Growth by Peptide‐Based Targeting of SREBP Activation” (Advanced Science, 2025).

Legend:
Format in all cases: cell-based, human
SREBP2 = assay: Immunofluorescence of SREBP2 nuclear translocation; settings: Huh7 cells, peptide 15 μM, IGF1 100 ng/mL 8 h
Method: For endogenous SREBP1 and SREBP2 staining, the cells were washed with ice‐cold PBS and fixed with 4% paraformaldehyde in PBS at room temperature (around 20–25 °C) for 15 min. Then, the cells were treated with 0.1% Triton X‐100 for 5 min and blocked in 3% BSA for 1 h at room temperature. The cells were then incubated with primary antibody against SREBP1 (diluted 1:200) or SREBP2 (diluted 1:200) overnight at 4 °C. After incubation with fluorescent‐dye‐conjugated secondary antibody (diluted 1:1000; Thermo Fisher Scientific) in PBS containing 0.05% saponin, 5% goat serum and 0.5% BSA for 1 h at room temperature followed by DAPI (diluted 1:10 000; Thermo Fisher Scientific) staining of the cell nucleus for 10 min. Cells were examined using a laser confocal microscope (Zeiss LSM 900).
a) Following pretreatment with Insig1/2 loop 1 peptide (15 μM) and IGF1 stimulation (100 ng ml⁻¹, 8 h), Huh7 cells were subjected to immunofluorescence analysis (scale bar: 10 μm).

[1] = tested on: Insig1 S207/Insig2 S151 phosphorylation; assay: Immunoblot of Insig1 S207/Insig2 S151 phosphorylation, Hep3B; settings: Hep3B cells, peptide 7.5 or 15 μM 1 h before IGF1 100 ng/mL
Method: Cellular proteins were extracted using ice‐cold lysis buffer [50 mM Tris‐HCl (pH 7.5), 150 mM NaCl, 0.1% SDS, 1% Triton X‐100, 1 mM DTT, 0.5 mM EDTA] supplemented with protease inhibitor cocktail (Roche) and phosphatase inhibitors (Bimake). Following lysis, cell extracts were centrifuged at 13400 × g for 15 min at 4 °C to remove cellular debris. The clarified supernatants were then incubated with primary antibodies overnight at 4 °C with gentle rotation. For Flag‐tagged protein immunoprecipitation, Flag M2 magnetic beads (Sigma) were added to the lysate‐antibody mixture and incubated for an additional 4 h at 4 °C. The immunocomplexes were washed three times with lysis buffer under stringent conditions (5 min per wash with rotation). Finally, the precipitated proteins were eluted and analyzed by immunoblotting as previously described.^[ [35] ^]
e) Hep3B cells were pretreated with low (7.5 μM) or high (15 μM) concentrations of Insig1/2 loop 1 peptide for 1 h before IGF1 (100 ng ml⁻¹) stimulation.

Huh7 cells = assay: Triglyceride (TG) detection assay, Huh7; settings: peptide 25 µM, IGF1 100 ng/mL 24 h, n = 3
Method: Figure 1 The Insig1/2 loop 1 peptide binds to S90‐phosphorylated PCK1 and blocks PCK1‐mediated SREBP activation and tumor cell proliferation. Immunoblotting analyses were performed using the indicated antibodies; representative results from three independent experiments are shown (IP, immunoprecipitation; WB, western blot). a) Huh7 cells expressing various Insig1 (top) or Insig2 (bottom) truncation mutants were treated with or without IGF1 (100 ng mL^−1) for 1 h. b,c) Biolayer interferometry assays (Sartorius Octet) were employed to measure the binding affinity of Insig1/2 loop 1 peptide to GST‐PCK1 or GST‐PCK1 pS90 proteins. […] Statistical significance was determined by one‐way analysis of variance (ANOVA). g) Following pretreatment with Insig1/2 loop 1 peptide (15 µM) and IGF1 stimulation (100 ng mL^−1, 8 h), Huh7 cells were subjected to immunofluorescence analysis (scale bar: 10 µm). h) Quantitative PCR analysis of SREBP1 target gene GPAM in Huh7 cells pretreated with Insig1/2 loop 1 peptide (15 µM) and stimulated with IGF1 (100 ng mL^−1) for 10 h. […] Statistical significance was determined by one‐way analysis of variance (ANOVA). i) Quantitative PCR analysis of SREBP1 target gene FASN in Huh7 cells pretreated with Insig1/2 loop 1 peptide (15 µM) and stimulated with IGF1 (100 ng mL^−1) for 10 h. […]

RKKRRQRRRLYPCIDSHLGEPHKFKRE [Insig1/2 loop 1 peptide]
IGF1-induced nuclear translocation of SREBP2 (SREBP2): inhibited
Insig1 S207/Insig2 S151 phosphorylation [1]: markedly inhibited
IGF1-induced increase in triglycerides (TGs) (Huh7 cells): reduced
